Assays:
[1] = biological target: HCV genotype 1b replicon; assay: HCV genotype 1b replicon assay (Renilla luciferase readout); assay type: cell-based, hepatitis C virus; conditions: for Genotype 1b: HCV genotype 1b replicon; for EC50: Hepatitis C virus, read-out: Genotype 1b
Method in brief: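 Huh7-derived APC144 subgenomic replicon cells carrying Renilla luciferase–NS3-NS5B, seeded 10,000/well without G418, then treated with compound dose-responses for 48 h at 37 °C (0.5% DMSO final). Luciferase signal fitted by 4-parameter model to EC50, reported as pEC50.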

[2] = test system: HCV genotype 1a replicon; assay: HCV genotype 1a replicon assay (NS3 protease activity readout); assay type: cell-based, hepatitis C virus; conditions: for Genotype 1a: HCV genotype 1a replicon; for EC50: Hepatitis C virus, read-out: Genotype 1a, HCV genotype 1a replicon
Method in brief: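 Genotype 1a subgenomic replicon cells (APC89, Huh7.5) were treated with compound dose-responses in G418-free medium, 0.5% DMSO final, for 48 or 72 hours at 37° C. Lysate NS3/4a protease activity measured with 15 μM FRET substrate, 20 min at 37° C (ex 340/em 509 nm); EC50 by 4-parameter fit.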

Compound	Genotype 1b [1]	Genotype 1a [2]	EC50 [1]	EC50 [2]
COC(=O)N[C@H](C(=O)N1C[C@@H](OC)C[C@H]1c1nc(-c2ccc(-c3ccc(C(=O)Nc4ccc(N5CCN(C(=O)C(C)(C)C)C[C@H]5C)nc4)cc3)cc2)c[nH]1)C1CCOCC1 [Example 22-13]	D (D represents pEC50>10 (EC50<0.1 nM))	D (D represents pEC50>10 (EC50<0.1 nM))		
COC(=O)N[C@H](C(=O)N1C[C@@H](C)C[C@H]1c1nc(-c2ccc(-c3ccc(C(=O)Nc4ccc(N5CCN(C(=O)[C@]6(C)CCCN6C(=O)[C@@H](NC(=O)OC)C(C)C)C[C@H]5C)nc4)cc3)cc2)c[nH]1)C(C)C [Example 4-2]	D (D represents pEC50>10 (EC50<0.1 nM))	D (D represents pEC50>10 (EC50<0.1 nM))		
COC(=O)N[C@H](C(=O)N1C[C@@H](C)C[C@H]1c1nc(-c2ccc(-c3ccc(C(=O)Nc4ccc(N5CCN(C(=O)[C@H]6CC6(C)C)C[C@H]5C)nc4)cc3)cc2)c[nH]1)C(C)C [Example 4-1]	D (D represents pEC50>10 (EC50<0.1 nM))	D (D represents pEC50>10 (EC50<0.1 nM))		
COC(=O)N[C@H](C(=O)N1C[C@@H](N(C)C)C[C@H]1c1nc(-c2ccc(-c3ccc(NC(=O)c4ccc(N5CCN(C(=O)[C@H]6CC6(C)C)C[C@H]5C)nc4)cc3)cc2)c[nH]1)C(C)C [Example 2-3]	D (D represents pEC50>10 (EC50<0.1 nM))	D (D represents pEC50>10 (EC50<0.1 nM))		
COC(=O)NC(C(=O)N1CC(C)CC1c1nc(-c2ccc(-c3cc(Cl)c(NC(=O)c4ccc(N5CCN(C(=O)C(C)(C)C)CC5C)nc4)cc3C(F)(F)F)cc2)c[nH]1)C1CC(C)OC(C)C1 (centres unmarked) [Example 19-9]	D (D represents pEC50>10 (EC50<0.1 nM))	D (D represents pEC50>10 (EC50<0.1 nM))		
COC(=O)NC(C(=O)N1CC(OC)CC1c1nc(-c2ccc(-c3cc(F)c(NC(=O)c4ccc(N5CCN(C(=O)C(C)(C)CO)CC5C)nc4)cc3OC(F)(F)F)cc2)c[nH]1)C(C)(C)O (centres unmarked) [Example 16-14]	D (D represents pEC50>10 (EC50<0.1 nM))	D (D represents pEC50>10 (EC50<0.1 nM))		
COC(=O)N[C@H](C(=O)N1C[C@@H](C)C[C@H]1c1nc(-c2ccc(-c3ccc(C(=O)Nc4ccc(N5CCN(C(=O)[C@H]6CC6(C)C)C[C@H]5C)nc4)cc3)cc2)c(Cl)[nH]1)C1CCOCC1 [Example 22-11]	D (D represents pEC50>10 (EC50<0.1 nM))	D (D represents pEC50>10 (EC50<0.1 nM))		
COC(=O)N[C@H](C(=O)N1C[C@@H](C)C[C@H]1c1nc(-c2ccc(-c3cc(Cl)c(NC(=O)c4ccc(N5CCN(C(=O)NC(C)(C)C)C[C@H]5C)nc4)cc3OC(F)(F)F)cc2)c[nH]1)C(C)C [Example 12-24]			< 0.1 nM	< 0.1 nM
COC(=O)N[C@H](C(=O)N1C[C@@H](C)C[C@H]1c1nc(-c2ccc(-c3cc(Cl)c(NC(=O)c4ccc(N5C[C@H](C)N(C(=O)c6c[nH]cn6)C[C@H]5C)nc4)cc3C(F)(F)F)cc2)c[nH]1)C(C)C [Example 3, [(S)-1-((2S,4S)-2-{4-[5′-Chloro-4′-({6-[(2R,5S)-4-(1H-imidazole-4-carbonyl)-2,5-dimethyl-piperazin-1-yl]-pyridine-3-carbonyl}-amino)-2′-trifluoromethyl-biphenyl-4-yl]-1H-imidazol-2-yl}-4-methyl-pyrrolidine-1-carbonyl)-2-methyl-propyl]-carbamic acid methyl ester]			< 0.1 nM	< 0.1 nM
COC(=O)N[C@H](C(=O)N1C[C@@H](C)C[C@H]1c1nc(-c2ccc(-c3cc(Cl)c(C(=O)Nc4ccc(N5CCN(C(=O)C(C)(C)CO)C[C@H]5C)nc4)cc3OC(F)(F)F)cc2)c(Cl)[nH]1)C1CCOCC1 [Example 22-9]			< 0.1 nM	< 0.1 nM
COC(=O)N[C@H](C(=O)N1C[C@@H](OC)C[C@H]1c1nc(-c2ccc(-c3cc(F)c(NC(=O)c4ccc(N5CCN(C(=O)C(C)(C)CO)C[C@H]5C)nc4)cc3OC(F)(F)F)cc2)c[nH]1)C1CCOCC1 [Example 28-3]	D (D represents pEC50>10 (EC50<0.1 nM))	D (D represents pEC50>10 (EC50<0.1 nM))		
COC(=O)N[C@H](C(=O)N1C[C@@H](OC)C[C@H]1c1nc(-c2ccc(-c3cc(Cl)c(NC(=O)c4ccc(N5CCN(C(=O)C(C)(C)CO)C[C@H]5C)nc4)cc3OC(F)(F)F)cc2)c(CO)[nH]1)C1CCOCC1 [Example 28-16]	D (D represents pEC50>10 (EC50<0.1 nM))	D (D represents pEC50>10 (EC50<0.1 nM))		
COCC1(C(=O)N2CCN(c3ccc(C(=O)Nc4cc(OC(F)(F)F)c(-c5ccc(-c6c[nH]c([C@@H]7C[C@H](OC)CN7C(=O)[C@@H](NC(=O)OC)C7CCOCC7)n6)cc5)cc4Cl)cn3)[C@H](C)C2)CC1 [Example 28-21]	D (D represents pEC50>10 (EC50<0.1 nM))	D (D represents pEC50>10 (EC50<0.1 nM))		
COC(=O)N[C@H](C(=O)N1C[C@@H](OC)C[C@H]1c1nc(-c2ccc(-c3cc(Cl)c(NC(=O)c4ccc(N5C[C@H](C)N(C(=O)[C@H]6CC6(C)C)C[C@H]5C)nc4)cc3OC(F)(F)F)cc2)c[nH]1)C1CCOCC1 [Example 28-6]	D (D represents pEC50>10 (EC50<0.1 nM))	D (D represents pEC50>10 (EC50<0.1 nM))		
COC(=O)N[C@H](C(=O)N1C[C@@H](C)C[C@H]1c1nc(-c2ccc(-c3cc(Cl)c(NC(=O)c4ccc(N5CCN(C(=O)N(C)OC)C[C@H]5C)nc4)cc3OC(F)(F)F)cc2)c[nH]1)C(C)C [Example 12-1]			< 0.1 nM	< 0.1 nM
COC(=O)N[C@H](C(=O)N1C[C@@H](O)C[C@H]1c1nc(-c2ccc(-c3cc(F)c(NC(=O)c4ccc(N5CCN(C(=O)C(C)(C)CO)C[C@H]5C)nc4)cc3OC(F)(F)F)cc2)c[nH]1)C(C)C [Example 26-7]	D (D represents pEC50>10 (EC50<0.1 nM))	C (C represents pEC50 between and 9 and about 10, (EC50 between 1 nM and 0.1 nM))		
COC(=O)N[C@H](C(=O)N1C[C@@H](C)C[C@H]1c1nc(-c2ccc(-c3cc(F)c(NC(=O)c4ccc(N5CCN(C(=O)[C@H]6CC6(C)C)C[C@H]5C)nc4)cc3F)cc2)c[nH]1)C(C)C [Example 1-81]	D (D represents pEC50>10 (EC50<0.1 nM))	D (D represents pEC50>10 (EC50<0.1 nM))		
COC(=O)NC(C(=O)N1CC(OC)CC1c1nc(-c2ccc(-c3cc(F)c(NC(=O)c4ccc(N5CCN(C(=O)C(C)(C)C)CC5C)nc4)cc3OC(F)(F)F)cc2)c[nH]1)C(C)O (centres unmarked) [Example 16-4]	D (D represents pEC50>10 (EC50<0.1 nM))	D (D represents pEC50>10 (EC50<0.1 nM))		
COC(=O)N[C@H](C(=O)N1[C@@H](C)CC[C@H]1c1nc(-c2ccc(-c3cc(Cl)c(NC(=O)c4ccc(N5CCN(C(=O)C(C)(C)C)C[C@H]5C)nc4)cc3OC(F)(F)F)cc2)c[nH]1)C(C)C [Example 17-3]	D (D represents pEC50>10 (EC50<0.1 nM))	D (D represents pEC50>10 (EC50<0.1 nM))		
COC(=O)N[C@H](C(=O)N1C[C@@H](C)C[C@H]1c1nc(-c2ccc(-c3cc(Cl)c(NC(=O)c4ccc(N5CCN(C(=O)C(C)(C)C)C[C@H]5C)nc4)cc3OC(F)(F)F)cc2)c[nH]1)C(C)(C)O [Example 13-5]			< 0.1 nM	< 0.1 nM
COC(=O)N[C@H](C(=O)N1C[C@@H](OC)C[C@H]1c1nc(-c2ccc(-c3cc(F)c(NC(=O)c4ccc(N5CCN(C(=O)C(C)(C)C)C[C@H]5C)nc4)cc3OC(F)(F)F)cc2)c[nH]1)C(C)C [Example 27-3]	D (D represents pEC50>10 (EC50<0.1 nM))	D (D represents pEC50>10 (EC50<0.1 nM))		
COC(=O)NC(C(=O)N1CC(C)CC1c1nc(-c2ccc(-c3ccc(NC(=O)c4ccc(N5CCN(C(=O)C(C)(C)CO)CC5C)nc4)cc3OC(F)(F)F)cc2)c[nH]1)C(C)O (centres unmarked) [Example 13-30]	D (D represents pEC50>10 (EC50<0.1 nM))	D (D represents pEC50>10 (EC50<0.1 nM))		
COC(=O)N[C@H](C(=O)N1C[C@@H](C)C[C@H]1c1nc(-c2ccc(-c3cc(Cl)c(NC(=O)c4ccc(N5CCN(C(=O)C(C)(C)CO)C[C@H]5C)nc4)cc3OC(F)(F)F)cc2)c[nH]1)[C@H](C)OC [Example 13-18]			< 0.1 nM	< 0.1 nM
COC(=O)N[C@H](C(=O)N1C[C@@H](OC)C[C@H]1c1nc(-c2ccc(-c3ccc(NC(=O)c4ccc(N5CCN(C(=O)C(C)(C)C)C[C@H]5C)nc4)cc3OC(F)(F)F)cc2)c[nH]1)C1CCOCC1 [Example 28-2]	D (D represents pEC50>10 (EC50<0.1 nM))	D (D represents pEC50>10 (EC50<0.1 nM))		
COC(=O)NC(C(=O)N1CC(C)CC1c1nc(-c2ccc(-c3cc(Cl)c(NC(=O)c4ccc(N5CCN(C(=O)C6CC6(F)F)CC5C)nc4)cc3C(F)(F)F)cc2)c[nH]1)C(C)C (mixture of isomers) [Example 1-55]	D (D represents pEC50>10 (EC50<0.1 nM))	D (D represents pEC50>10 (EC50<0.1 nM))		
COC(=O)N[C@H](C(=O)N1C[C@@H](OC)C[C@H]1c1nc(-c2ccc(-c3cc(F)c(NC(=O)c4ccc(N5CCN(C(=O)C(C)(C)CO)C[C@H]5C)nc4)cc3OC(F)(F)F)cc2)c[nH]1)C(C)C [Example 27-6]	D (D represents pEC50>10 (EC50<0.1 nM))	D (D represents pEC50>10 (EC50<0.1 nM))		
COC(=O)N[C@H](C(=O)N1C[C@@H](N(C)C)C[C@H]1c1nc(-c2ccc(-c3ccc(C(=O)Nc4ccc(N5CCN(C(=O)C6CC6(C)C)C[C@H]5C)nc4)cc3)cc2)c[nH]1)C(C)C (some centres unmarked) [Example 6-5]			< 0.1 nM	0.1 to 1 nM
COC(=O)N[C@H](C(=O)N1C[C@@H](C)C[C@H]1c1nc(-c2ccc(-c3cc(Cl)c(NC(=O)c4ccc(N5CCN(C(=O)C(C)(C)CO)C[C@H]5C)nc4)cc3OC(F)(F)F)cc2)c[nH]1)C1CCOCC1 [Example 13-19]			< 0.1 nM	< 0.1 nM

— patent US9212168B2 (priority 2011, dated 2015)
